System: C. albicans biofilm formation
Assay: Biofilm assay (crystal violet, 96-well plate)
Assay type: cell-based, Candida albicans
Method: C. albicans (MEN, serotype B, clinical isolate from a corneal infection) was maintained on sabouraud dextrose agar, and cultures were grow to the stationary phase ((1–2) × 10^8 cells/mL) overnight in YEPD broth (1% (w/v) yeast extract, 2% (w/v) bacteriological peptone, 2% (w/v) glucose) at 30 °C, and 200 rpm. Stationary phase yeast cells were harvested, washed with PBS, and resuspended at a density of 1 × 10^8 cells/mL in PBS.
C. albicans cells were washed twice with PBS and enumerated before being resuspended in RPMI to give a cell density of (2 × 10^7 cells/mL). Compounds were resuspended in PBS to give a concentration of 2 mg/mL. The compounds (250 μL) were mixed with RPMI (250 μL) in a 1:1 ratio to give a concentration of 1 mg/mL. PBS (250 μL) was mixed with RPMI (250 μL).
C. albicans cells (500 μL, 2 × 10^7 cells/mL) were incubated with compounds (1 mg/mL) in a 1:1 ratio to give a final cell density to concentration ratio of […]. The suspension was incubated for 3 h at rt and mixed by vortex every 20 min to prevent cells from falling out of solution. Cell suspension (100 μL) was added to wells of a 96-well flat bottom plate. The plate was incubated at 37 °C for 24 h. […] The plate was read at 550 nm in a 96-well plate reader. The percentage reduction in biofilm was calculated by dividing the absorbance value of the treated cells into that of the control.

O=C[C@H](O)[C@@H](O)[C@@H](O)[C@H](O)CO [D-galactose]
% Change in biofilm formation (Figure 4, relative to PBS control, compound 1 mg/mL mixed 1:1 with cells, 24 h at 37 °C, crystal violet, 550 nm, error: standard deviation): 114% | effect on biofilm formation (in words) (biofilm growing conditions, positive control): promoted the formation of the biofilm

Reference: PMC8154258, “Multivalent Presentations of Glycomimetic Inhibitor of the Adhesion of Fungal Pathogen Candida albicans to Human Buccal Epithelial Cells” (Bioconjugate Chemistry, 2021)
